These results are taken from ChEMBL document CHEMBL1201862, “PubChem BioAssay data set” (2004).

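Method: 48-hour compound exposure of cells in 96-well plates, five concentrations, linear interpolation of endpoints. The concentration for 50% growth inhibition is given as GI50.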 Calls of active or inactive are those of the source. Rule as the data show it: active = GI50 up to about 1.1 µM and inactive = higher.

Some test systems named below: MDA-N; PC-3; LOX IMVI; MCF7; NCI-H23; TK-10; U-251; OVCAR-3; UO-31; 786-0; M14; SK-OV-3; A498; SW-620; CAKI-1; HOP-92; SR.
What all share (experiment): inhibition of tumour cell growth, NCI panel, 48 h

Consider `O=C(CSc1nc2ccc([N+](=O)[O-])cc2s1)c1ccc2ccccc2c1`, for which the GI50 is > 100 µM (inactive) in the assay with MDA-N; 88.1 µM (inactive) with PC-3; > 100 µM (inactive) in the assay on LOX IMVI; > 100 µM (inactive) in the assay on MCF7; 33 µM (inactive) in the assay on NCI-H23; 54.2 µM (inactive) with TK-10. Besides, the GI50 in the assay on U-251 was > 100 µM (inactive); in the assay on OVCAR-3 it was > 100 µM (inactive); in the assay on UO-31, > 100 µM (inactive); in the assay on 786-0 it was 34 µM (inactive); in the assay with M14, > 100 µM (inactive); in the assay with SK-OV-3, > 100 µM (inactive). Besides, the GI50 in the assay with A498 is > 100 µM (inactive); in the assay with SW-620 it was > 100 µM (inactive); with CAKI-1, > 100 µM (inactive); in the assay on HOP-92, 57.7 µM (inactive).
With `COC(=O)C(C(=O)C(=O)NC1Nc2ccc(C)cc2S1)c1nc2ccc(Cl)cc2nc1O` (stereo unspecified), the GI50 in the assay on MDA-N, in the assay on PC-3, with LOX IMVI, with MCF7, in the assay with NCI-H23 and in the assay on TK-10 was > 100 µM (inactive) each time. The GI50 in the assay with U-251, in the assay with OVCAR-3, in the assay with UO-31, with 786-0, with SK-OV-3 and with A498 was > 100 µM (inactive) throughout. Moreover, the results for the GI50 in the assay with SW-620, in the assay with CAKI-1 and in the assay with HOP-92 were > 100 µM (inactive), > 100 µM (inactive) and 82.4 µM (inactive), respectively.
Turning to `CN(C)C(=O)O/N=C1/C(=C2/C(=O)Nc3ccccc32)Nc2ccccc21`, the GI50 in the assay with MDA-N was 46.2 µM (inactive); in the assay with LOX IMVI it was 86.3 µM (inactive); in the assay on MCF7 it was 17 µM (inactive); in the assay with NCI-H23, 28.7 µM (inactive); in the assay with TK-10, 17.4 µM (inactive); in the assay on U-251, 11.7 µM (inactive). For the same compound, the GI50 is 8.99 µM (inactive) in the assay on OVCAR-3; 21.6 µM (inactive) with UO-31; 6.98 µM (inactive) in the assay with 786-0; 50.1 µM (inactive) in the assay with M14; 11.8 µM (inactive) with SK-OV-3; 1.5 µM (inactive) in the assay on A498. Further, the GI50 with SW-620 is 53.7 µM (inactive); in the assay with CAKI-1, 0.883 µM (active); in the assay on SR, 4.89 µM (inactive); in the assay with HOP-92, 6.21 µM (inactive).
On to `COc1ccc(-c2nc(-c3cc4ccccc4oc3=O)cs2)cc1`, for which the GI50 was > 100 µM (inactive) in the assay with PC-3; > 100 µM (inactive) in the assay with LOX IMVI; > 100 µM (inactive) in the assay on MCF7; 70.6 µM (inactive) with TK-10; 21.9 µM (inactive) in the assay on U-251; 35.7 µM (inactive) in the assay with UO-31. For the same compound, the GI50 is 31.3 µM (inactive) with 786-0; > 100 µM (inactive) in the assay on M14; 29.6 µM (inactive) with SK-OV-3; > 100 µM (inactive) in the assay on SW-620; > 100 µM (inactive) in the assay on CAKI-1; > 100 µM (inactive) with SR. Moreover, in the assay on HOP-92, the GI50 is 60.8 µM (inactive).
In the case of `c1cc(Sc2nc(Sc3ccncc3)nc(Sc3ccncc3)n2)ccn1`, the GI50 with MDA-N, in the assay with PC-3, in the assay with LOX IMVI, in the assay with MCF7, with NCI-H23 and in the assay on TK-10 was > 100 µM (inactive) throughout. Moreover, the GI50 with U-251, with OVCAR-3, in the assay with UO-31, in the assay with 786-0, in the assay with M14 and in the assay with SK-OV-3 was > 100 µM (inactive) each time. Also, the GI50 in the assay on A498, in the assay with SW-620, in the assay with CAKI-1 and with HOP-92 was > 100 µM (inactive) throughout.
Turning to `O=C(N/N=C(COc1ccccc1Cl)\N=C\c1cccnc1)c1ccncc1`, the GI50 with MDA-N, with PC-3, in the assay with LOX IMVI, with MCF7, in the assay on NCI-H23 and in the assay on TK-10 was > 100 µM (inactive) throughout. The GI50 with U-251, in the assay with OVCAR-3, in the assay with 786-0, in the assay on M14, in the assay with SK-OV-3 and with A498 was > 100 µM (inactive) throughout. Also, the GI50 in the assay with SW-620 and with CAKI-1 was > 100 µM (inactive) each time.
Regarding `COc1ccc(-c2nc3ccccc3c(=S)n2OC(C)=O)cc1`, the GI50 is 12 µM (inactive) in the assay on MDA-N; 1.29 µM (inactive) with PC-3; 4.92 µM (inactive) with LOX IMVI; 5.92 µM (inactive) in the assay on MCF7; 1.95 µM (inactive) in the assay with NCI-H23; > 25 µM (inactive) in the assay with TK-10. Also, the GI50 with U-251 was 2.56 µM (inactive); with UO-31 it was 1.91 µM (inactive); in the assay on 786-0, 3.09 µM (inactive); in the assay with M14 it was 4.98 µM (inactive); in the assay on SK-OV-3, 5.71 µM (inactive); in the assay with A498, 23.9 µM (inactive). Moreover, the GI50 in the assay with SW-620 is 4.63 µM (inactive); in the assay with CAKI-1 it was 5.9 µM (inactive); in the assay with HOP-92, > 25 µM (inactive).
On to `COC(=N)c1ncn(Cc2ccccc2)c1N`, for which the GI50 in the assay with MDA-N, in the assay with PC-3, in the assay on LOX IMVI, in the assay on MCF7, in the assay on NCI-H23 and with TK-10 was > 100 µM (inactive) each time. Besides, the GI50 in the assay on U-251, in the assay with OVCAR-3, in the assay on 786-0, in the assay on M14, in the assay on SK-OV-3 and with A498 was > 100 µM (inactive) each time. Also, the GI50 in the assay on SW-620, with CAKI-1 and in the assay with HOP-92 was > 100 µM (inactive) throughout.
For the compound `COc1cc(/C=C2\CCc3ccccc3C2=O)ccc1O`, the GI50 with PC-3 is > 10 µM (inactive); in the assay with LOX IMVI it was 15 µM (inactive); with MCF7, 11.1 µM (inactive); in the assay on NCI-H23, 23 µM (inactive); in the assay with TK-10, 18.7 µM (inactive); in the assay on U-251 it was 16.9 µM (inactive). In addition, the GI50 in the assay on OVCAR-3 is 19.6 µM (inactive); in the assay with UO-31, 14.3 µM (inactive); with 786-0, 13.7 µM (inactive); in the assay with M14, 17.9 µM (inactive); in the assay with SK-OV-3 it was 26 µM (inactive); in the assay on A498 it was > 10 µM (inactive). The GI50 in the assay with SW-620 is 16.1 µM (inactive); in the assay on CAKI-1, 24.3 µM (inactive); with SR it was 11.2 µM (inactive); in the assay with HOP-92 it was 22.6 µM (inactive).
For the compound `CCC1(C)N=c2c(ncn2N=C(C)C)=C(C(N)=O)N1` (stereo unspecified), the GI50 with MDA-N, in the assay on PC-3, with LOX IMVI, in the assay on NCI-H23, in the assay on TK-10 and with U-251 was > 100 µM (inactive) throughout. The GI50 in the assay with OVCAR-3, with 786-0, with M14, in the assay on SK-OV-3, in the assay on A498 and in the assay on SW-620 was > 100 µM (inactive) in each case. In addition, the figures for the GI50 in the assay with CAKI-1, in the assay on SR and in the assay on HOP-92 were > 100 µM (inactive), > 100 µM (inactive) and 0.426 µM (active), respectively.
